Test systems include 786-0 renal; CAKI-1 renal; EKVX NSCLC; HOP-62 NSCLC; LOX IMVI melanoma; MALME-3M melanoma; SF-268 CNS; SK-MEL-5 melanoma; SK-OV-3 ovarian; UACC-257 melanoma.
Experiment in all cases: inhibition of tumour cell growth, NCI panel, 48 h

Where “and” joins values, the source holds several entries; their conditions need not be identical. Equal values may be shown once.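 Grown in 96-well plates, cells were treated for 48 hours with each compound at five concentrations. Insufficient inhibition: endpoint recorded as highest concentration tested. GI50 = concentration required for 50% inhibition of growth. TGI denotes the concentration required for complete inhibition of growth.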

As to `CC(=O)OC1COC(n2c(=S)n(-c3ccc(C)cc3)c(=O)c3ccccc32)C(OC(C)=O)C1OC(C)=O` (centres undefined), the TGI with 786-0 renal, in the assay on CAKI-1 renal, in the assay on EKVX NSCLC, in the assay on HOP-62 NSCLC, in the assay with LOX IMVI melanoma and in the assay on MALME-3M melanoma was over 100 µM in each case. For the same molecule, the TGI in the assay on SF-268 CNS, in the assay on SK-MEL-5 melanoma, with SK-OV-3 ovarian and in the assay on UACC-257 melanoma was over 100 µM in each case.

As to `C=C(CNCCO)[C@@H]1CC[C@]2(CO)CC[C@]3(C)[C@H](CC[C@@H]4[C@@]5(C)CCC(N)C(C)(C)[C@@H]5CC[C@]43C)[C@@H]12` (some centres undefined), the GI50 in the assay on 786-0 renal is 1.63 µM; in the assay with CAKI-1 renal it was 4.86 µM; in the assay with EKVX NSCLC it was 4.59 µM; in the assay with HOP-62 NSCLC, 2.79 µM; in the assay on LOX IMVI melanoma, 1.7 µM; in the assay on MALME-3M melanoma, 1.58 µM. The GI50 in the assay with SF-268 CNS was 2.61 µM; in the assay with SK-MEL-5 melanoma it was 1.73 µM; with SK-OV-3 ovarian it was 11.1 µM; in the assay with UACC-257 melanoma, 1.8 µM. Further, the TGI with 786-0 renal came to 3.31 µM; with CAKI-1 renal, 18.1 µM; in the assay with EKVX NSCLC it was 18.1 µM; in the assay with HOP-62 NSCLC it was 7.36 µM; with LOX IMVI melanoma it was 3.2 µM; in the assay with MALME-3M melanoma it was 3.11 µM. Further, the TGI in the assay with SF-268 CNS was 10.3 µM; in the assay on SK-MEL-5 melanoma, 3.18 µM; in the assay on SK-OV-3 ovarian, 23.3 µM; with UACC-257 melanoma it was 3.23 µM.

For the molecule `COc1ccccc1NC(=O)CC(=O)n1nc(C)c(N=Nc2ccccc2C(=O)O)c1C`, the TGI is over 100 µM with 786-0 renal; over 100 µM in the assay on CAKI-1 renal; 83.5 µM in the assay on EKVX NSCLC; over 100 µM in the assay with HOP-62 NSCLC; over 100 µM in the assay with LOX IMVI melanoma; over 100 µM with MALME-3M melanoma. The TGI with SF-268 CNS, in the assay with SK-MEL-5 melanoma, in the assay with SK-OV-3 ovarian and in the assay with UACC-257 melanoma was over 100 µM in each case.

For the molecule `Cc1nc2c(nc1C)C(=O)c1ccccc1C2=O`, the TGI in the assay with 786-0 renal is 47.1 µM; in the assay with CAKI-1 renal, 61.9 µM; with EKVX NSCLC it was 41.5 µM; in the assay with HOP-62 NSCLC, 10.3 µM; in the assay with LOX IMVI melanoma, 7.11 µM; in the assay on MALME-3M melanoma, 0.704 µM. The TGI with SF-268 CNS is 46.3 µM; in the assay on SK-MEL-5 melanoma, 0.518 µM; in the assay with SK-OV-3 ovarian, 82.6 µM; with UACC-257 melanoma, 4.3 µM.

As to `O=C1c2ccccc2C(=O)c2sc(Nc3cccc(Cl)c3)nc21`, the TGI in the assay with 786-0 renal stood at 3.74 µM; with CAKI-1 renal, 4.97 µM; in the assay with EKVX NSCLC, 4.89 µM; with HOP-62 NSCLC, 3.19 µM; in the assay with LOX IMVI melanoma, 2.28 µM; with MALME-3M melanoma it was 2.69 µM. In addition, the TGI in the assay on SF-268 CNS was 4.69 µM; in the assay with SK-MEL-5 melanoma, 2.99 µM; in the assay on SK-OV-3 ovarian, 10.9 µM; in the assay with UACC-257 melanoma, 2.99 µM.

For the molecule `COc1cc2nc(C)nc(N[C@H](C)c3cc(N)cc(C(F)(F)F)c3)c2cc1O[C@H]1CCOC1`, the GI50 with 786-0 renal was 9.82 µM; with CAKI-1 renal, 7.14 µM; in the assay with EKVX NSCLC, 11.1 µM; in the assay on HOP-62 NSCLC it was 11.1 µM; in the assay with LOX IMVI melanoma it was 12.2 µM; in the assay with MALME-3M melanoma, 18.2 µM. Further, the GI50 in the assay with SF-268 CNS is 12.5 µM; in the assay with SK-MEL-5 melanoma, 13.4 µM; in the assay on SK-OV-3 ovarian, 14.2 µM; in the assay with UACC-257 melanoma it was 16.1 µM. For the same molecule, the TGI in the assay on 786-0 renal amounted to 23.1 µM; with CAKI-1 renal, 24.1 µM; in the assay with EKVX NSCLC it was 26.5 µM; with HOP-62 NSCLC, 25.6 µM; in the assay on LOX IMVI melanoma, 28.1 µM; in the assay on MALME-3M melanoma, 33.4 µM. Also, the TGI came to 31.6 µM in the assay with SF-268 CNS, 26.5 µM with SK-MEL-5 melanoma, 28.3 µM in the assay with SK-OV-3 ovarian and 30.5 µM with UACC-257 melanoma.

On to `CC1(C)OC(=O)C(=Cc2ccc(O)cc2)C(=O)O1`, for which the TGI in the assay with 786-0 renal, with CAKI-1 renal, in the assay on EKVX NSCLC, in the assay with HOP-62 NSCLC, in the assay on LOX IMVI melanoma and with MALME-3M melanoma was over 100 µM each time. Further, the TGI in the assay with SF-268 CNS, with SK-MEL-5 melanoma, in the assay on SK-OV-3 ovarian and with UACC-257 melanoma was over 100 µM each time.

Take `O=C(NCCNc1nccc(-c2c(-c3cccc(O)c3)nc3sccn23)n1)c1ccccc1O`: the GI50 is 6.25 µM with 786-0 renal; 3.23 µM with CAKI-1 renal; 11.8 µM in the assay on EKVX NSCLC; 9.04 µM in the assay with HOP-62 NSCLC; 3.03 µM in the assay on LOX IMVI melanoma; 0.152 µM in the assay on MALME-3M melanoma. Moreover, the GI50 is 5.4 µM with SF-268 CNS, 1.47 µM in the assay on SK-MEL-5 melanoma, 4.31 µM in the assay on SK-OV-3 ovarian and 0.473 µM with UACC-257 melanoma. Also, the TGI in the assay with 786-0 renal came to 43.1 µM; in the assay with CAKI-1 renal it was 21.8 µM; in the assay on EKVX NSCLC, 50.9 µM; in the assay with HOP-62 NSCLC, 42.1 µM; in the assay on LOX IMVI melanoma, 23.7 µM; with MALME-3M melanoma, 18.7 µM. In addition, the TGI is 46.6 µM in the assay with SF-268 CNS, 5.21 µM with SK-MEL-5 melanoma, 39.7 µM in the assay on SK-OV-3 ovarian and 11.2 µM in the assay with UACC-257 melanoma.

On to `COc1ccc(-c2cc(-c3ccc(Nc4nc(Nc5ccccc5)nc(Nc5ccc(Cl)cc5)n4)cc3)nc(N)c2C#N)cc1`, for which the GI50 was 1.05 µM with 786-0 renal; 0.705 µM with CAKI-1 renal; 1.44 µM with EKVX NSCLC; 1.93 µM with HOP-62 NSCLC; 0.837 µM in the assay with LOX IMVI melanoma; 0.801 µM with MALME-3M melanoma. For the same molecule, the GI50 with SF-268 CNS is 1.04 µM; in the assay on SK-MEL-5 melanoma, 1.18 µM; in the assay on SK-OV-3 ovarian, over 28.3 µM; in the assay on UACC-257 melanoma, 1.25 µM. Moreover, the TGI in the assay on 786-0 renal is 2.06 µM; in the assay on CAKI-1 renal, 1.49 µM; with EKVX NSCLC, over 22.9 µM; in the assay with HOP-62 NSCLC, 8.98 µM; with LOX IMVI melanoma it was 1.58 µM; in the assay with MALME-3M melanoma, 1.8 µM. The TGI is 2.49 µM in the assay with SF-268 CNS, 3.03 µM in the assay on SK-MEL-5 melanoma, over 50 µM with SK-OV-3 ovarian and 3.15 µM with UACC-257 melanoma.

Regarding `NC1CCC(Nc2nc(NCc3ccc(-c4ccco4)nc3)c3ncn(C4CCCC4)c3n2)CC1` (centres undefined), the GI50 with 786-0 renal was 0.0732 µM; with CAKI-1 renal, 2.86 µM; with EKVX NSCLC, 0.0465 µM; in the assay on HOP-62 NSCLC, 0.0238 µM; with MALME-3M melanoma, 0.035 µM; in the assay on SF-268 CNS, 0.011 µM. Further, the GI50 is 0.0913 µM with SK-MEL-5 melanoma, 0.049 µM with SK-OV-3 ovarian and 0.0277 µM in the assay on UACC-257 melanoma. For the same molecule, the TGI in the assay on 786-0 renal was 1.8 µM; in the assay on CAKI-1 renal it was 12.6 µM; in the assay with EKVX NSCLC, 0.538 µM and 0.242 µM; with HOP-62 NSCLC, 0.0806 µM; in the assay with LOX IMVI melanoma it was 21.9 µM; in the assay with MALME-3M melanoma, 0.212 µM. The TGI is 0.169 µM and 1.3 µM in the assay with SF-268 CNS; 1.02 µM in the assay on SK-MEL-5 melanoma; 15.6 µM with SK-OV-3 ovarian; 0.088 µM in the assay on UACC-257 melanoma.

For the origin of these results see PubChem BioAssay (NCI).
